As a reminder, the IC50 is the concentration needed to halve the response being measured. Low readings indicate inhibition by little substance, high ones a need for much substance.

The target of one experiment is T1, K103NNY181C mutant reverse transcriptase (Human immunodeficiency virus type 1 group M subtype B, UniProt P04585, K690N/Y768C).
T1 construct: mutations that occur in the reverse transcriptase segment of the pol gene
The experiment in a line: Reverse transcriptase enzymatic assay (PicoGreen), K103N/Y181C mutant RT. It is filed as biochemical, HIV-1. To be noted: IC50 mut (nM), mutant (K103N/Y181C) reverse transcriptase, enzymatic assay of Example 24. An outline of the steps: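 HIV-1 RT (2.5 nM final) pre-incubated 15 min at room temperature with inhibitor, then reacted 50 min at 37 °C with poly rC 45 nM, dG15 4.5 nM, dGTP 3.6 μM in Tris/HCl pH 7.8, 1% DMSO. Final inhibitor 10 μM to 0.508 nM; EDTA-quenched, PicoGreen fluorescence read at 485/520 nm.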
`CC(=O)NC(C(=O)Nc1ccc(NC(=O)CSc2nnnn2-c2ccc(C(C)(C)C)cc2Cl)c(Cl)c1)c1ccccc1` (centres unmarked) [Compound 7033] displayed a concentration for half-maximal inhibition (IC50) of 21.5 nM.
Take `CC(C)(C)c1ccc(-n2nnnc2SCC(=O)Nc2ccc(NC(=O)Nc3ccccc3)cc2Cl)c(Cl)c1` [Compound 7002]: half-maximal inhibition (IC50) required 187 nM.
On the same count and under the same terms, the figure for `CC(C)(C)c1ccc(-n2nnnc2SCC(=O)Nc2ccc(NC(=O)CCc3ccccc3)cc2Cl)c(Cl)c1` [Compound 7038] is 860 nM.

The experiment is the same for the next values; noted with them: IC50 mut, K103N/Y181C mutant reverse transcriptase, enzymatic assay of Example 24.
The molecule `CC(C)(C#Cc1ccc(NC(=O)CSc2nnnn2-c2ccc(C3CC3)cc2Cl)c(Cl)c1)NCc1cc[n+]([O-])cc1` [Compound 4186] yielded a 50% inhibitory concentration (IC50) of 12 nM.
Molecule `CC(C)(C#Cc1ccc(NC(=O)CSc2nnnn2-c2cc(C(C)(C)C)ccc2Cl)c(Cl)c1)NC(=O)CNc1cc[n+]([O-])cc1` [Compound 4203] displayed a half-maximal inhibitory concentration (IC50) of 164 nM.
In the case of `CC(C)(C#Cc1ccc(NC(=O)CSc2nnnn2-c2ccc(C(C)(C)C)cc2Cl)c(Cl)c1)C(=O)O` [Compound 4011], the IC50 is 25 nM.
On the same count and under the same terms, to `COC(C)(C)C#Cc1ccc(NC(=O)CSc2nnnn2-c2ccc(C3CC3)cc2Cl)c(Cl)c1` [Compound 4074] belongs 35.5 nM; to `CC(C)(C#Cc1ccc(NC(=O)CSc2nnnn2-c2cc(C(C)(C)C)ccc2Cl)c(Cl)c1)NC(=O)c1cc[n+]([O-])cc1` [Compound 4205], 28.5 nM.
The same measure, in the same setting: the figure for `CC(C)(C#Cc1ccc(NC(=O)CSc2nnnn2-c2cc(C(F)(F)F)ccc2Cl)c(Cl)c1)OCCOc1ccncc1` [Compound 4168] is 108 nM; for `CC(C)(C#Cc1ccc(NC(=O)CSc2nnnn2-c2ccc(C3CC3)cc2Cl)c(Cl)c1)NC(=O)CN1CCC(C(=O)O)CC1` [Compound 4154] it is 10.5 nM; for `CC(C)(C#Cc1ccc(NC(=O)CSc2nnnn2-c2ccc(CC3CC3)cc2Cl)c(Cl)c1)C(=O)NCCCN1CCCC1=O` [Compound 4244] it is 217 nM.
Still for that read-out and setting: to `CC(C)(C#Cc1ccc(NC(=O)CSc2nnnn2-c2ccc(C(C)(C)C)cc2Cl)c(Cl)c1)OCC(=O)NC1(C(=O)O)CC1` [Compound 4036] belongs 36 nM.
Turning to `CC(C)(C#Cc1ccc(NC(=O)CSc2nnnn2-c2cc(C(C)(C)C)ccc2Cl)c(Cl)c1)NC(=O)CN1CCNCC1` [Compound 4202], the IC50 is 106 nM.
On the same count and under the same terms, the figure for `Cc1cc(C#CC(C)(C)C(=O)O)ccc1NC(=O)CSc1nnnn1-c1ccc(C(C)(C)C)cc1Cl` [Compound 4057] is 96 nM; for `Cc1cc(C#CC(C)(C)NC(=O)c2cc[n+]([O-])cc2)ccc1NC(=O)CSc1nnnn1-c1ccc(C2CC2)cc1Cl` [Compound 4180] it is 71 nM; for `CC(C)(C#Cc1ccc(NC(=O)CSc2nnnn2-c2ccc(C3CC3)cc2Cl)c(Cl)c1)NC(=O)CC(=O)O` [Compound 4232] it is 10 nM.
Same read-out and setting: the figure for `CC(C)(N)C#Cc1ccc(NC(=O)CSc2nnnn2-c2cc(C(C)(C)C)ccc2Cl)c(Cl)c1` [Compound 4201] is 52 nM; for `CC(C)(C#Cc1ccc(NC(=O)CSc2nnnn2-c2cc(F)ccc2Cl)c(Cl)c1)C(=O)O` [Compound 4212] it is 362 nM.
On the same count and under the same terms, the figure for `CC(C)(C)c1ccc(-n2nnnc2SCC(=O)Nc2ccc(C#CC3(O)CCC3)cc2Cl)c(Cl)c1` [Compound 4062] is 53 nM.
On to `CC(C)(N)C#Cc1ccc(NC(=O)CSc2nnnn2-c2cc(C(F)(F)F)ccc2Cl)c(Cl)c1F` [Compound 4163], for which half-maximal inhibition (IC50) required 83 nM.
Still for that read-out and setting: the figure for `CN1CCC[C@H]1C(=O)NC(C)(C)C#Cc1ccc(NC(=O)CSc2nnnn2-c2ccc(C3CC3)cc2Cl)c(Cl)c1` [Compound 4110] is 11.5 nM; for `CN(C)CCNC(=O)COC(C)(C)C#Cc1ccc(NC(=O)CSc2nnnn2-c2ccc(C(C)(C)C)cc2Cl)c(Cl)c1` [Compound 4047] it is 66 nM.
Still for that read-out and setting: to `CC(C)(C#Cc1ccc(NC(=O)CSc2nnnn2-c2cc(C(C)(C)C)cc(Br)c2Cl)c(Cl)c1)NC(=O)CN1CCNCC1` [Compound 4224] belongs 101 nM; to `Cc1c(NC(=O)CSc2nnnn2-c2ccc(C3CC3)cc2Cl)ccc(C#CC(C)(C)NC(=O)c2cc[n+]([O-])cc2)c1F` [Compound 4178], 26 nM; to `CC(C)(C#Cc1ccc(NC(=O)CSc2nnnn2-c2ccc(C3CC3)cc2Cl)c(Cl)c1)NC(=O)c1ccncc1` [Compound 4085], 12 nM.
Still for that read-out and setting: the figure for `CC(C)(C#Cc1ccc(NC(=O)CSc2nnnn2-c2ccc(C3CC3)cc2Cl)c(Cl)c1)NC(=O)CN1CCNCC1` [Compound 4124] is 27 nM; for `CC(C)(C#Cc1ccc(NC(=O)CSc2nnnn2-c2ccc(C3CC3)cc2Cl)c(Cl)c1)NCC(N)=O` [Compound 4231] it is 16 nM.
Take `CC(C)(C#Cc1ccc(NC(=O)CSc2nnnn2-c2ccc(C3(C)CC3)cc2Cl)c(Cl)c1)C(=O)O` [Compound 4173]: the 50% inhibitory concentration (IC50) turned out to be 51 nM.
Still for that read-out and setting: to `CC(C)(C#Cc1ccc(NC(=O)CSc2nnnn2-c2ccc(C(C)(C)C)cc2Cl)c(Cl)c1)OCC(=O)Nc1cccc(C(=O)O)c1` [Compound 4025] belongs 44 nM; to `O=C(CSc1nnnn1-c1ccc(C2CC2)cc1Cl)Nc1ccc(C#CCCN2CCNCC2)cc1Cl` [Compound 4135], 29 nM.
Still for that read-out and setting: the figure for `CCNC(=O)NC(C)(C)C#Cc1ccc(NC(=O)CSc2nnnn2-c2ccc(C3CC3)cc2Cl)c(Cl)c1` [Compound 4075] is 20.5 nM; for `CC(=O)NC(C)(C)C#Cc1ccc(NC(=O)CSc2nnnn2-c2cc(C(F)(F)F)ccc2Cl)c(Cl)c1` [Compound 4141] it is 40 nM.
Regarding `CC(C)(C#Cc1ccc(NC(=O)CSc2nnnn2-c2cc(C(C)(C)C)cc(Br)c2Cl)c(Cl)c1)NC(=O)CN1CCC(C(=O)O)CC1` [Compound 4226], the IC50 is 52 nM.
Same read-out and setting: to `CC(C)(C)c1ccc(-n2nnnc2SCC(=O)Nc2ccc(C#CCCCCO)cc2Cl)c(Cl)c1` [Compound 4003] belongs 643 nM; to `CC(C)(O)C#Cc1ccc(NC(=O)CSc2nnnn2-c2ccc(C(C)(C)C)cc2Cl)c(Cl)c1` [Compound 4005], 20 nM; to `CC(C)(C)c1ccc(-n2nnnc2SCC(=O)Nc2ccc(C#Cc3ccccc3)cc2Cl)c(Cl)c1` [Compound 4002], 268 nM.
The same measure, in the same setting: the figure for `CC(C)(C#Cc1ccc(NC(=O)CSc2nnnn2-c2cccc(Cl)c2Cl)c(Cl)c1)C(=O)O` [Compound 4161] is 224 nM.

The experiment is the same for the next values; noted with them: IC50 mut, mutant reverse transcriptase, enzymatic assay of Example 24.
As to `CCNC(=O)c1ccc(NC(=O)CSc2nnnn2-c2ccc(C)cc2Cl)c(Cl)c1` [Compound 3008], the IC50 came to 300 nM.
Still for that read-out and setting: the figure for `CC(C)(C)c1ccc(-n2nnnc2SCC(=O)Nc2ccc(-c3ccc(/C=C/C(=O)O)cc3)cc2Cl)c(Cl)c1` [Compound 2032] is 6.6 nM; for `O=C(CSc1nnnn1-c1ccc(C2CC2)cc1Cl)Nc1ccc(-c2ccc(OCCN3CCCCC3)cc2)cc1Cl` [Compound 2047] it is 63.5 nM; for `CC(C)(C)c1ccc(-n2nnnc2SCC(=O)Nc2ccc(C(=O)NCc3ccc(O)c(O)c3)cc2Cl)c(Cl)c1` [Compound 6019] it is 36 nM.
The same measure, in the same setting: the figure for `O=C(COc1ccc(NC(=O)CSc2nnnn2-c2ccc(C3CC3)cc2Cl)c(Cl)c1)NCCc1ccccn1` [Compound 5034] is 357 nM.
Same read-out and setting: to `Cc1ccc(-n2nnnc2SCC(=O)Nc2ccc(-c3c[nH]cn3)cc2Cl)c(Cl)c1` [Compound 3018] belongs 269 nM; to `CC(C)(C)c1ccc(-n2nnnc2SCC(=O)Nc2ccc(-c3ccc(OCC(=O)O)c(Cl)c3)cc2Cl)c(Cl)c1` [Compound 3013], 24 nM.
`O=C(COc1ccc(NC(=O)CSc2nnnn2-c2ccc(C3CC3)cc2Cl)c(Cl)c1)NCCc1ccc[n+]([O-])c1` [Compound 5039] displayed a half-maximal inhibitory concentration (IC50) of 479 nM.
Still for that read-out and setting: the figure for `CC(C)(C)c1ccc(-n2nnnc2SCC(=O)Nc2ccc(OCC(=O)Nc3ccc(O)cc3)cc2Cl)c(Cl)c1` [Compound 5013] is 150 nM; for `CC(C)(C)c1ccc(-n2nnnc2SCC(=O)Nc2ccc(C(=O)NCc3ccc(N)cc3)cc2Cl)c(Cl)c1` [Compound 6026] it is 51 nM; for `Cc1ccc(-n2nnnc2SCC(=O)Nc2ccc(-c3coc(C)n3)cc2Cl)c(Cl)c1` [Compound 3017] it is 308 nM.
In the case of `CNC(=O)c1ccc(NC(=O)CSc2nnnn2-c2ccc(C)cc2Cl)c(Cl)c1` [Compound 3007], the IC50 was 290 nM.
Same read-out and setting: the figure for `CC(C)(C)c1ccc(-n2nnnc2SCC(=O)Nc2ccc(C(=O)NCCN3CCOCC3)cc2Cl)c(Cl)c1` [Compound 6028] is 55 nM; for `CC(C)(C)c1ccc(-n2nnnc2SCC(=O)Nc2ccc(C(=O)NC3CC3)cc2Cl)c(Cl)c1` [Compound 6002] it is 31 nM; for `CC(C)(C)c1ccc(-n2nnnc2SCC(=O)Nc2ccc(C(=O)Nc3ccc(CC(=O)O)cc3)cc2Cl)c(Cl)c1` [Compound 6001] it is 69 nM.
The same measure, in the same setting: the figure for `CC(C)(C)c1ccc(-n2nnnc2SCC(=O)Nc2ccc(C(=O)N3CCC(C(=O)O)CC3)cc2Cl)c(Cl)c1` [Compound 6030] is 919 nM; for `Cc1ccc(-n2nnnc2SCC(=O)Nc2ccc(-c3cccc(C(=O)O)c3)cc2Cl)c(Cl)c1` [Compound 3003] it is 241 nM.
On the same count and under the same terms, to `CC(C)(C)c1ccc(-n2nccc2SCC(=O)Nc2ccc(-c3ccc(CC(=O)O)cc3)cc2Cl)c(Cl)c1` [Compound 1006] belongs 216 nM.
Molecule `CC(C)c1ccc(-n2nnnc2SCC(=O)Nc2ccc(-c3ccc(OCCN4CCCC4)cc3)cc2Cl)c(Br)c1` [Compound 2053] registered an IC50 of 24 nM.
On the same count and under the same terms, the figure for `CC(C)(C)c1ccc(-n2nnnc2SCC(=O)Nc2ccc(C(=O)NN3CCOCC3)cc2Cl)c(Cl)c1` [Compound 6007] is 30 nM.
On the same count and under the same terms, to `CC(C)(C)c1ccc(-n2nnnc2SCC(=O)Nc2ccc(OCC(=O)NCCc3ccncc3)cc2Cl)c(Cl)c1` [Compound 5024] belongs 66 nM.
Same read-out and setting: the figure for `CC(C)(C)c1ccc(-n2nnnc2SCC(=O)Nc2ccc(OCC(=O)Nc3ccc(CC(=O)O)cc3)cc2Cl)c(Cl)c1` [Compound 5023] is 38 nM.

The values are drawn from patent US7517998B2, “Non nucleoside reverse transcriptase inhibitors” (priority 2004, dated 2009).
